Results taken from publication PMC10534582, “A Pharmacokinetic Study of Sixteen Major Bioactive Components of Jinshui-Huanxian Granules in Pulmonary Fibrosis Model and Control Rats Using Orbitrap Fusion Mass Spectrometry” (Molecules, 2023).
Where two headings read alike, the source gives them in different places.

How the values were obtained:
[1] = Pharmacokinetics of JHG components in pulmonary fibrosis (PF) model rats after intragastric administration of JHGs (plasma, Orbitrap Fusion MS); type: in vivo, Sprague Dawley (SD) rats; details: for pharmacokinetic process (versus dosage): low, medium, high doses of JHGs
Protocol: (§1) Healthy male Sprague Dawley (SD) rats of SPF grade (240 ± 20 g) were purchased from Sipeifu (Beijing, China) Biotechnology Co., Ltd. (Beijing, China), Certificate of Conformity No.: SCYK (Beijing, China) 2019-0015, Animal Quality Certificate No.: 110324220102348616. They were housed in the Animal Center of Henan University of Traditional Chinese Medicine, which passed the ethical audit, ethics number: DWLL202208003, breeding Co. 24 °C, relative humidity 50 ± 2%. The animals fasted for 12 h before the experiment and drank water freely. All feeding and experimental studies on experimental animals were in accordance with the regulations on the Management of Experimental Animals in Henan Province.
The PF model in rats was replicated by reference to the conclusion tracheal intubation method in the literature. After the rats were anesthetized, bleomycin (BLM) (5 mg/kg) was used as an induction agent and followed the tracheal intubation method. BLM solution was aspirated with a 1 mL syringe and injected into the indwelling syringe. A total of 0.3 mL of air was rapidly pushed into the syringe, the rats were immediately stroked upright so that the BLM solution was evenly distributed in both lungs. BLM was given on day 0 for modeling, then gavage was taken after day 28, with fasting without water for 12 h before sampling. The histopathological examination was performed to verify the construction of the PF model. The rats were anesthetized by the abdominal cavity, then the lung tissues were violently shocked by opening the chest, and the right lower lobe of the lung was taken and fixed in 4% formaldehyde solution, then dehydrated by sucrose gradient, paraffin-embedded, and sectioned. H&E and Masson staining were performed to observe the degree of alveolitis of lung tissue and the degree of pulmonary fibrosis, respectively. The inflammation and fibrosis of lung tissues was observed under the light microscope.
(§2) Twenty-four healthy male SD rats or PF model rats, weighing 240 ± 20 g, fasted for 12 h before the experiment and drank water freely. Both kinds of rats were randomly divided into four groups. Blank group: equal dose of water by intragastric, low dose; administration group: rats were given the equivalent human dose of JHGs by intragastric, i.e., 10.8 g of raw drug/kg/d (5.70 g/kg/d); medium-dose administration group: 2 times the human equivalent dose of JHGs by intragastric, i.e., 21.6 g of raw drug/kg/d (11.41 g/kg/d); high-dose administration group: 4 times the human equivalent dose of JHG, i.e., 43.2 g of raw drug/kg/d (22.81 g/kg/d). Blood was collected from the tail vein before and 0.083, 0.25, 0.5, 0.75, 1, 1.5, 2, 3, 4, 6, 8, 12, 18, and 24 h after dosing, respectively. A total of 0.5 mL was placed in a heparin sodium centrifuge tube. Whole blood was left for 30 min and then centrifuged in a low-temperature freezing centrifuge (4 °C, 3000 r/min) for 15 min. The upper layer of plasma was collected and stored in a refrigerator at −80 °C.
(§3) We added 50 μL of internal standard solution and 800 μL of methanol, shook for 15 min, then centrifuged at 12,000 r/min for 10 min, took the supernatant, dried in a centrifuge concentrator, added 50 μL of the initial mobile phase to the residue, dissolved, centrifuged, then separated the upper layer of the solution used as the test solution. A total of 5 μL test solution was taken into the sample for analysis. For each compound with a certain dosage, the same procedure is repeated six times in parallel. The concentration in plasma was calculated by the internal standard method.
Accucore C18 (100 mm × 2.1 mm, 2.6 μm) column at 25 °C, the mobile phase was methanol (A)-0.1% formic acid aqueous solution (B). The gradient elution program was 0–4 min (65% B-40% B), 4–5 min (40% B-40% B), 5–6 min (40% B-28% B), and 6–7 min (28% B-19% B), 7–7.5 min (19% B-10% B), 7.5–11 min (10% B-0% B), the flow rate was 0.2 mL/min, and the injection volume was 5 μL. […]

[2] = Pharmacokinetics of JHG components in control rats after intragastric administration of JHGs (plasma, Orbitrap Fusion MS); type: in vivo, Sprague Dawley (SD) rats; details: for AUC(0-inf) / AUC(0-t) / half-life / MRT last / MRT inf / Tmax / Cmax: male, rat, plasma, po; for MRT last: read-out: MRT(0-t); for MRT inf: read-out: MRT(0-∞); for Cmax: intragastric JHGs
Protocol: as §1, §2, §3
Accucore C18 (100 mm × 2.1 mm, 2.6 μm) column at 25 °C, the mobile phase was methanol (A)-0.1% formic acid aqueous solution (B). The gradient elution program was 0–4 min (65% B-40% B), 4–5 min (40% B-40% B), 5–6 min (40% B-28% B), and 6–7 min (28% B-19% B), 7–7.5 min (19% B-10% B), 7.5–11 min (10% B-0% B), the flow rate was 0.2 mL/min, and the injection volume was 5 μL.
The ion source was an electrospray ionization source (ESI). Nitrogen acted as a carrier gas. The sheath gas pressure was 35 Arb. The auxiliary gas pressure was 7 Arb. The spray voltage was 3.50 kv(+), 2.50 kv(-). The ion transport tube temperature was regulated at 300 °C. Gasification temperature was 275 °C. The resolution was 50,000. The scanning mode was set as SIM mode. The optimized parameters obtained are in Table 5.
Under the established Orbitrap Fusion MS method, the pharmacokinetics of JHG in rats were studied to investigate the dynamic changes of the active components in rats. The pharmacokinetic parameters of each component in each dosing group were calculated by […] model analysis using Kinetica 5.1 (Innaphase, Waltham, MA, USA) pharmacokinetic analysis software. The pharmacotemporal curves were plotted by the plotting software. SPSS 19.0 (IBM, Armonk, NY, USA) was used to analyze all the parameters. Independent sample tests were performed after natural logarithmic transformation for AUC0–t, Cmax. The nonparametric Mann–Whitney test was applied for Tmax, t½, and MRT0–t. p < 0.05 was considered statistically significant.

[3] = Sprague Dawley, 5.7 g/kg/day, JHGs low dose 5.70 g/kg/d
[4] = Sprague Dawley, 5.7 g/kg/day, JHGs low dose 5.70 g/kg/d, read-out: Tmax
[5] = Sprague Dawley, 5.7 g/kg/day, low dose 5.70 g/kg/d, n=6 (1st of 3 stacked values)
[6] = Sprague Dawley, 11.41 g/kg/day, JHGs medium dose 11.41 g/kg/d
[7] = Sprague Dawley, 11.41 g/kg/day, JHGs medium dose 11.41 g/kg/d, read-out: Tmax
[8] = Sprague Dawley, 11.41 g/kg/day, medium dose 11.41 g/kg/d, n=6 (2nd of 3 stacked values)
[9] = Sprague Dawley, 22.81 g/kg/day, JHGs high dose 22.81 g/kg/d
[10] = Sprague Dawley, 22.81 g/kg/day, JHGs high dose 22.81 g/kg/d, read-out: Tmax
[11] = Sprague Dawley, 22.81 g/kg/day, high dose 22.81 g/kg/d, n=6 (3rd of 3 stacked values)

| SMILES | Clearances ([2]; JHGs high dose 22.81 g/kg/d) [mL/min/kg] | Vss ([2]; JHGs high dose 22.81 g/kg/d) [L] | Clearances ([2]; JHGs low dose 5.70 g/kg/d) [mL/min/kg] | Vss ([2]; JHGs low dose 5.70 g/kg/d) [L] | Clearances ([2]; JHGs medium dose 11.41 g/kg/d) [mL/min/kg] | Vss ([2]; JHGs medium dose 11.41 g/kg/d) [L] | AUC(0-inf) [2, 3] [ng·h/mL] | AUC(0-t) [2, 3] [ng·h/mL] | half-life [2, 3] [h] | MRT last [2, 3] [h] | MRT inf [2, 3] [h] | Tmax [2, 4] [h] | Cmax [2, 5] [ng/mL] | AUC(0-inf) [2, 6] [ng·h/mL] | AUC(0-t) [2, 6] [ng·h/mL] | half-life [2, 6] [h] | MRT last [2, 6] [h] | MRT inf [2, 6] [h] | Tmax [2, 7] [h] | Cmax [2, 8] [ng/mL] | also measured |
| --- | --- | --- | --- | --- | --- | --- | --- | --- | --- | --- | --- | --- | --- | --- | --- | --- | --- | --- | --- | --- | --- |
| CC1CCC2N(C1)CC1C3CC4C(CC(O)C5CC(O)CCC54C)C3CCC1C2(C)O (stereo not drawn) [Peimine] | 88.7 ± 12.2 | 60.06 ± 7.12 | 31 ± 7.83 | 131.39 ± 53.45 | 75.5 ± 9.5 | 61.2 ± 9.95 | 24.7 ± 5.52 | 7.38 ± 2.13 | 52.1 ± 30.7 | 11.1 ± 0.12 | 75.3 ± 41.8 | 4 | 0.57 ± 0.22 | 17.6 ± 2.24 | 14.6 ± 1.9 | 8.02 ± 0.39 | 8.8 ± 0.32 | 13.5 ± 0.58 | 3.33 ± 0.58 | 1.49 ± 0.26 | MRT(0–t), PF model group compared with the control group ([1]; PF model vs control rats): decreased; pharmacokinetic process (Cmax and AUCs versus dosage) ([2]; low, medium, high doses of JHGs): linear pharmacokinetic process; AUC(0-inf) [2, 9]: 29.9 ± 4.92 ng·h/mL; AUC(0-t) [2, 9]: 26.6 ± 4.11 ng·h/mL; half-life [2, 9]: 7.23 ± 0.62 h; MRT last [2, 9]: 8.43 ± 0.11 h; MRT inf [2, 9]: 11.3 ± 0.63 h; Tmax [2, 10]: 2.67 ± 0.58 h; Cmax [2, 11]: 2.53 ± 0.56 ng/mL |
| CC1CCC2N(C1)CC1C3CC4C(CC(=O)C5CC(O)CCC54C)C3CCC1C2(C)O (stereo not drawn) [Peiminine] | 112 ± 30.2 | 67.52 ± 15.96 | 46.2 ± 14 | 28.03 ± 8.27 | 61 ± 18.7 | 40.68 ± 9.67 | 31.9 ± 9.55 | 29.1 ± 8.48 | 6.06 ± 0.22 | 8.01 ± 0.09 | 10.2 ± 0.32 | 4.67 ± 1.15 | 2.91 ± 0.9 | 43.9 ± 16.4 | 38.6 ± 13.2 | 7.97 ± 0.84 | 8.23 ± 0.25 | 11.3 ± 1.03 | 4 | 4.22 ± 1.27 | Tmax, PF model group compared with the control group ([1]; PF model vs control rats): decreased significantly; AUC(0-inf) [2, 9]: 46.1 ± 13.7 ng·h/mL; AUC(0-t) [2, 9]: 42 ± 11.7 ng·h/mL; half-life [2, 9]: 6.82 ± 0.57 h; MRT last [2, 9]: 7.84 ± 0.1 h; MRT inf [2, 9]: 10.1 ± 0.42 h; Tmax [2, 10]: 3 h; Cmax [2, 11]: 5.31 ± 1.61 ng/mL |
| C[C@@H]1O[C@@H](OC[C@H]2O[C@@H](Oc3c(-c4ccc(O)c(O)c4)oc4cc(O)cc(O)c4c3=O)[C@H](O)[C@@H](O)[C@@H]2O)[C@H](O)[C@H](O)[C@H]1O [Rutin] |  |  |  |  |  |  |  |  |  |  |  |  |  |  |  |  |  |  |  |  | pharmacokinetic process (versus dosage) ([1]; PF model rats): linear pharmacokinetic process; Tmax ([1]; male, Sprague-Dawley, rat, plasma, po, PF model rats, after administration of JHGs, read-out: Tmax of all dosages): ≤ 2 h; correlation between CL, AUCs (AUC(0–t), AUC (0–∞)), t½, and dose [2]: no correlation; Tmax ([2]; Sprague-Dawley, after administration of JHGs, read-out: Tmax of all dosages): ≤ 2 h |
| COc1cc(O)c2c(c1)oc(=O)c1c3cc(O)c(O)cc3oc21 [Wedelolactone] | 0.1 ± 0 | 0.07 ± 0.01 | 0.05 ± 0.017 | 0.04 ± 0 | 0.05 ± 0 | 0.03 ± 0.01 | 139 ± 45.6 | 110 ± 24.7 | 10.7 ± 3.69 | 7.52 ± 0.34 | 14 ± 3.66 | 2 | 18.6 ± 3.98 | 276 ± 35.6 | 242 ± 32.4 | 8.01 ± 1.33 | 8.23 ± 0.18 | 11.6 ± 1.32 | 3.67 ± 0.58 | 27.8 ± 2.35 | pharmacokinetic process (versus dosage) ([1]; PF model rats): linear pharmacokinetic process; MRT(0–t), PF model group compared with the control group ([1]; PF model vs control rats): decreased; AUC(0-inf) [2, 9]: 262 ± 13.5 ng·h/mL; AUC(0-t) [2, 9]: 221 ± 17.2 ng·h/mL; half-life [2, 9]: 8.2 ± 0.63 h; MRT last [2, 9]: 7.5 ± 0.21 h; MRT inf [2, 9]: 12 ± 1.32 h; Tmax [2, 10]: 1.83 ± 0.29 h; Cmax [2, 11]: 35.4 ± 2.29 ng/mL |
